Reference: patent US9750755B2, “Antimicrobial compositions and related methods” (DeLaval Holding AB, priority 2006, dated 2017)

Key:
E. coli (ATCC 11229) = assay: Modified EN 1656 dilution neutralization test, milk as interferent, 30 seconds contact; format: cell-based, Escherichia coli; details: 10% lactic acid used alone, typical
Description: (§1) The test bacteria were Eschericia coli (ATCC 11229), which were originally isolated from mastitis infection and obtained on commercial order from Mastitlaboratoriet, SVA, and Staphococcus aureus (ATCC6538 from Microbiologics, St. Cloud, Minn.), which was also isolated from mastitis infection.
(§2) According to a modified EN1656 dilution neutralization method, freeze dried E. coli (ATCC 11229) and S. aureus (ATCC 6538) were hydrated, grown for four days and transferred. Then bacteria were diluted to form a suspension to have an initial concentration of about 10^8 cfu/mL.
(§3) Freeze-dried pellets of E. coli (ATCC 11229) and S. aureus (ATCC 6538) were hydrated, placed in test tubes containing nutrient agar and incubated at 37° C. for 24 hours. Sterile buffer (0.25 M phosphate adjusted to pH 7.2) was used to dilute and transfer the bacteria to additional nutrient agar tubes, which were incubated for another 24 hours. S. aureus was then diluted with buffer and transferred to nutrient agar in French bottles, and E. coli was diluted and transferred to fresh nutrient agar tubes. Both types of bacteria were incubated at 37° C. for 72 hours. E. coli was then diluted and transferred to nutrient agar in French bottles. […]
(§4) The plates with bacterial populations between 25 and 250 were counted and results were expressed as logarithmic reductions according to EN 1656 test method.

S. aureus (ATCC 6538) = assay: as above; format: cell-based, Staphylococcus aureus; details: 10% lactic acid used alone, typical
Description: as §1, §2, §3, §4

## CC(O)C(=O)O (stereo not drawn) [lactic acid, L(+)-2-Hydroxypropanoic acid]
E. coli (ATCC 11229)
  log reduction in E. coli concentration: five log reduction
S. aureus (ATCC 6538)
  log reduction in S. aureus concentration: less than a three log reduction
